# Measurements reported in PMC11212140, “Molecular Bidents with Two Electrophilic Warheads as a New Pharmacological Modality” (ACS Central Science, 2024).
# What was measured:
# [1] = tested on: phosphorylation of EGFR, ERK1/2, and AKT; assay: Immunoblot of EGFR signaling pathway in H3255 cells; format: cell-based, human; settings: H3255, 6 h treatment
# Protocol: (A) Dose–response curves for ZNL-0056 and osimertinib in H3255 cells following 72 h of treatment. Cell viability was assessed with CellTiter-Glo. Data are presented as the mean ± SEM (n = 4). Representative data from three independent experiments are shown. (B) Immunoblot assessment of the effect of ZNL-0056 on EGFR signaling pathway in H3255 cells after 6 h treatment. Representative blots from two independent experiments are shown. […] TEXT PRINTED IN THE PICTURE: (A) ZNL-0056: H3255: IC50 (nM): 471.3 | (A) Osimertinib: H3255: IC50 (nM): 27.76 […]
# (§1) For infection of Ba/F3 cells, 2.5 mL of viral supernatant and 8 μg/mL polybrene was added to 2.5 million cells per well in six-well plates. The plate was centrifuged at 2500 rpm for 90 minutes at 37 °C for the spin infection. […]
# (§2) Cells were lysed in RIPA buffer (150 mM NaCl, 1.0% IGEPAL® CA-630, 0.5% sodium deoxycholate, 0.1% SDS, 50 mM Tris, pH 8.0) (Sigma, Cat# R0278) with protease inhibitor and phosphatase inhibitor (Roche). The protein concentrations were measured by BCA analysis (Thermo Fisher Scientific, Cat # PI23225). […]
# (§3) or IRDye 680RD goat anti-Mouse IgG (LICOR Biosciences , Cat # 926-68070) secondary antibodies at room temperature for 1 hour. The membranes were detected on Odyssey CLx system. […]
# [2] = tested on: T1, EGFR^L858R kinase domain; assay: Determining sites of probe modification by MS; format: biochemical; settings: EGFR^L858R protein, mass spectrometry
# T1 construct: purified recombinant EGFR^L858R kinase domain treated by the compounds; made in house
# Description: Covalent docking (CovDock in Schrodinger software suite) was used to predict binding modes and scores of designed bident and mono-valent molecules. Thorough mode was used for docking and top 5 poses for each molecule were inspected visually to identify the most likely binding conformation based on the known core scaffold binding mode. Hinge hydrogen bonds of the core scaffolds were used as constraints in docking calculations. […]
# reactive residues, only one cysteine was specified for covalent bond formation during docking of […]
# for bident molecules, a proper binding mode required the other warhead in close proximity with its intended reactive cysteine. To obtain the final predicted binding mode in Figure 2B, the pre-reaction cysteine and warhead were manually linked with proper chemical bond, and the complex was optimized using receptor-ligand complex optimization protocol in Schrodinger suite with default settings. The final optimized complex was compared against the original binding mode to ensure minimal changes to the ligand and receptor residue conformations. […]
# EGFR protein was treated with indicated probe for 2 hours at 30 °C in 50 mM HEPES buffer 100 mM NaCl pH 7.5. […] Peptides were desalted by C18 and analyzed by nanoLC-MS using a Waters NanoAcquity UPLC (Waters, Milford, MA) interfaced to a Orbitrap QExactive HF mass spectrometer (ThermoFisher Scientific, San Jose, CA). […]
# [3] = tested on: EGFR, ERK1/2, and Akt phosphorylation; assay: Immunoblot of EGFR signaling pathway in EGFR-mutated Ba/F3 cells; format: cell-based; settings: EGFR^L858R, EGFR^L858R/C797S and EGFR^L858R/C775S Ba/F3 cells, 6 h
# Protocol: Figure 5 ZNL-0056 covalently engages Cys775 and Cys797 in EGFR Ba/F3 cells. (A) The average IC50 values (mean ± S.D.) of the indicated compounds in EGFR^L858R Ba/F3, EGFR^L858R/C797S Ba/F3, and EGFR^L858R/C775S Ba/F3 cells after […] treatment. The graph was generated from three independent experiments, each performed with four replicates. (B) Immunoblot assessment of the effect of ZNL-0056 on the EGFR signaling pathway in EGFR^L858R Ba/F3, EGFR^L858R/C797S Ba/F3, and EGFR^L858R/C775S Ba/F3 cells after 6 h treatment. Representative data from two independent experiments are shown.
# as §1, §2, §3
# [4] = tested on: panel of 468 human kinases; settings: 1 μM
# Protocol: KinomeScan profiling for ZNL-0056 at 1 μM against a panel of 468 human kinases. The results
# for the binding interactions are reported as “% Ctrl”, where larger circles indicate stronger hits.
# The selectivity score was defined as the ratio of the number of kinases inhibited to a specified
# percentage versus the total number of kinases. For this experiment, specified percent inhibition
# [5] = tested on: T2, PRP4; assay: KiNativ profiling in H3255 cells; format: cell-based, human; settings: 2.5 µM; Lys2; CNILHADIKPDNILVNESK
# T2 construct: purchased ActivX Biosciences (KiNativ)
# [6] = tested on: T3, CHED; assay: KiNativ profiling in H3255 cells; format: cell-based, human; settings: 2.5 µM; Lys2; DIKCSNILLNNR
# T3 construct: purchased ActivX Biosciences (KiNativ)
Compound,"concentration inhibiting phosphorylation of EGFR, ERK1/2, and AKT (as low as) [1]",in vitro labeling of Cys797 and Cys775 [2],"inhibition of EGFR, ERK1/2, and Akt phosphorylation [3]",selectivity score S (10) [4],Inhibition [5],Inhibition [6]
C=CC(=O)Nc1cc(C(=O)Nc2nc3cccc(C)c3n2[C@@H]2CCCCN(C(=O)C=C)C2)cs1 [ZNL-0056],0.1 µM,high in vitro labeling efficacy,significantly inhibited,0.05,,
"C=CC(=O)Nc1cc(Nc2nccc(-c3cn(C)c4ccccc34)n2)c(OC)cc1N(C)CCN(C)C [Osimertinib, osimertinib, reference compound]",,,,,-3.8%,28.0%
